35 compounds from ChEMBL document CHEMBL5046226, “Identification of (6S)-cyclopropyl-6,7-dihydropyrazolo[1,5-a]pyrazine-5(4H)-carboxamines as new HBV capsid assembly modulators” (Eur J Med Chem, 2022) can be followed below.

One series concerns Hepatitis B virus. Kind of series: Antiviral activity against Hepatitis B virus infected in human HepG2.2.15 cells. It counts as functional, organism-based.
Series [1] is described as follows: Cytotoxicity against human HepG2.2.15 cells assessed as reduction in cell viability by CellTiter-Glo reagent based assay. The series is classed as toxicity, HepG2 2.2.15. A general note: Cellular ATP, detected with luciferase, serves as a proxy for viable cell number.
A short description of series [2]: Tmax in ICR mouse at 50 mg/kg, po. The series is classed as ADME, organism-based. The conditions noted are these: in vivo.
The nature of series [3]: Cmax in ICR mouse at 50 mg/kg, po. It counts as ADME, organism-based. Set-up: route oral, dose 50 mg/kg. The conditions noted are these: in vivo.
Series [4] is described as follows: Half life in ICR mouse at 50 mg/kg, po. The settings on record: in vivo. The series is classed as ADME, organism-based.
Series [5] is described as follows: AUC (0 to infinity) in ICR mouse at 50 mg/kg, po. It counts as ADME, organism-based. Set-up: route oral, time infinity, dose 50 mg/kg. The settings on record: in vivo.

Regarding `C[C@H]1Cn2ncc(N3CC(c4ccccc4)CC3=O)c2CN1C(=O)NCc1cc(F)c(F)c(F)c1` (some centres undefined), the EC50 (as a rule, the midpoint of the concentration-response curve) in the series on Hepatitis B virus was more than 2000 nM. Moreover, the CC50 (usually the concentration at which the toxic effect on the cells reaches its halfway point) in series [1] was more than 2000 nM.
Compound `O=C1CC(c2ccc(F)cc2)CN1c1cnn2c1CN(C(=O)Nc1cc(F)c(F)c(F)c1)C(C1CC1)C2` (centres undefined) registered an EC50 in the series with Hepatitis B virus of 23 nM. The CC50 in series [1] amounted to 32000 nM.
Consider `C[C@H]1Cn2ncc(N3CC(c4ccccc4)CC3=O)c2CN1S(=O)(=O)Nc1cc(F)c(F)c(F)c1` (some centres undefined), for which, in the series on Hepatitis B virus, the half-maximal effective concentration (EC50) was more than 2000 nM. Also, in series [1], the CC50 was more than 2000 nM.
`O=C1CC(c2ncco2)CN1c1cnn2c1CN(C(=O)Nc1cc(F)c(F)c(F)c1)C(C1CC1)C2` (centres undefined): the EC50 with Hepatitis B virus is 9 nM. Also, the time of peak concentration (Tmax) (as a rule, the time at which the peak concentration occurs) in series [2] is 15 min. The Cmax – broadly, the highest concentration seen after dosing – in series [3] was 8740 ng/mL. Moreover, the half-life (in general, how long it takes for the measured level to halve) in series [4] was 222 min. In addition, the AUC(0-inf) – broadly, total exposure, with the tail of the curve extrapolated – in series [5] was found to be 12200 ng·h/mL. Moreover, the CC50 in series [1] is more than 200000 nM.
`O=C1CC(c2ccc(F)cn2)CN1c1cnn2c1CN(C(=O)Nc1cc(F)c(F)c(F)c1)C(C1CC1)C2` (centres undefined) came in with a concentration giving a half-maximal response (EC50) in the series on Hepatitis B virus of 15 nM. The CC50 in series [1] amounted to 38500 nM.
Consider `O=C1CC(c2ncc(F)cn2)CN1c1cnn2c1CN(C(=O)Nc1cc(F)c(F)c(F)c1)C(C1CC1)C2` (centres undefined), for which, in the series with Hepatitis B virus, a half-maximal response (EC50) required 20 nM. For the same compound, the half-maximal cytotoxic concentration (CC50) in series [1] was found to be 115000 nM.
Consider `N#CC1CC(=O)N(c2cnn3c2CN(C(=O)Nc2cc(F)c(F)c(F)c2)C2(CC2)C3)C1` (centres undefined), for which the EC50 in the series on Hepatitis B virus was 124 nM. Further, the CC50 in series [1] is more than 200000 nM.
For `O=C1OC(c2ccccc2)CN1c1cnn2c1CN(C(=O)Nc1cc(F)c(F)c(F)c1)C(C1CC1)C2` (centres undefined), a half-maximal effect with Hepatitis B virus (EC50) was put at 18 nM. Besides, the CC50 in series [1] came out at 7410 nM.
As to `Cc1nc(C2CC(=O)N(c3cnn4c3CN(C(=O)Nc3cc(F)c(F)c(F)c3)C(C3CC3)C4)C2)no1` (centres undefined), the EC50 in the series with Hepatitis B virus amounted to 16 nM. In addition, the Tmax in series [2] amounted to 19.8 min. The compound further registered a Cmax in series [3] of 3860 ng/mL. Further, in series [4], the half-life is 202 min. In series [5], the AUC(0-inf) is 3860 ng·h/mL. The CC50 in series [1] was more than 200000 nM.
Turning to `C[C@H]1Cn2ncc(N3CC(c4ccccc4)CC3=O)c2CN1C(=S)Nc1cc(F)c(F)c(F)c1` (some centres undefined), the half-maximal effective concentration (EC50) in the series with Hepatitis B virus is more than 2000 nM. The CC50 in series [1] is more than 2000 nM.
With `O=C1CC(c2ncccn2)CN1c1cnn2c1CN(C(=O)Nc1cc(F)c(F)c(F)c1)C(C1CC1)C2` (centres undefined), in the series with Hepatitis B virus, it took 15 nM to reach a half-maximal effect (EC50). The time of peak concentration (Tmax) in series [2] worked out at 15 min. Moreover, in series [3], the highest level (Cmax) was 5980 ng/mL. The compound further had a half-life in series [4] of 52.2 min. The compound further had an AUC(0-inf) in series [5] of 5070 ng·h/mL. For the same compound, the CC50 in series [1] was more than 200000 nM.
As for `O=C1CC(c2nccs2)CN1c1cnn2c1CN(C(=O)Nc1cc(F)c(F)c(F)c1)C(C1CC1)C2` (centres undefined), the response in the series with Hepatitis B virus was half-maximal at 11 nM (EC50). Further, the CC50 in series [1] turned out to be 115000 nM.
In the series with Hepatitis B virus, `C[C@H]1Cn2ncc(N3CC(c4ccccc4)CC3=O)c2CN1C(=O)Nc1cc(F)c(F)c(F)c1` (some centres undefined) yielded an EC50 of 9 nM. Also, in series [2], the Tmax is 15 min. In series [3], the concentration peaked (Cmax) at 3130 ng/mL. In series [4], this compound had a half-life of 136 min. The same compound showed an AUC(0-inf) in series [5] of 6510 ng·h/mL. Also, the 50% cytotoxic concentration (CC50) in series [1] was 12800 nM.
In turn, `CC1(C)CN(C(=O)Nc2cc(F)c(F)c(F)c2)Cc2c(N3CC(C#N)CC3=O)cnn21` (centres undefined) showed an EC50 in the series with Hepatitis B virus of 38 nM. Also, the CC50 in series [1] was more than 200000 nM.
The compound `O=C1c2ccccc2CN1c1cnn2c1CN(C(=O)Nc1cc(F)c(F)c(F)c1)C(C1CC1)C2` (centres undefined) gave an EC50 with Hepatitis B virus of 83 nM. The CC50 in series [1] worked out at 38500 nM.
As to `O=C(Nc1cc(F)c(F)c(F)c1)N1CCCn2ncc(N3CC(c4ccccc4)CC3=O)c2C1` (centres undefined), the EC50 in the series on Hepatitis B virus is more than 2000 nM. For the same compound, the CC50 in series [1] was more than 2000 nM.
In the series on Hepatitis B virus, `O=C1CC(c2ccccc2)CN1c1cnn2c1CN(C(=O)Nc1cc(F)c(F)c(F)c1)C1CCCCC12` (centres undefined) showed an EC50 of 27 nM. Moreover, in series [1], the CC50 is 21400 nM.
`O=C1CC(c2ccccn2)CN1c1cnn2c1CN(C(=O)Nc1cc(F)c(F)c(F)c1)C(C1CC1)C2` (centres undefined) came in with an EC50 with Hepatitis B virus of 12 nM. For the same compound, in series [1], the CC50 was determined as 96200 nM.
`CC1CCn2ncc(N3CC(c4ccccc4)CC3=O)c2CN1C(=O)Nc1cc(F)c(F)c(F)c1` (centres undefined) gave an EC50 in the series on Hepatitis B virus of more than 2000 nM. The CC50 in series [1] was more than 2000 nM.
`O=C1NC(c2ccccc2)CN1c1cnn2c1CN(C(=O)Nc1cc(F)c(F)c(F)c1)C(C1CC1)C2` (centres undefined) returned an EC50 in the series on Hepatitis B virus of 3 nM. Besides, in series [1], the CC50 was found to be 38500 nM.
In turn, `O=C1CC(c2cnc(C(F)(F)F)s2)CN1c1cnn2c1CN(C(=O)Nc1cc(F)c(F)c(F)c1)C(C1CC1)C2` (centres undefined) yielded an EC50 in the series with Hepatitis B virus of 27 nM. Moreover, the half-maximal cytotoxic concentration (CC50) in series [1] came to 38500 nM.
`O=C(Nc1cc(F)c(F)c(F)c1)N1Cc2c(-c3ccc(F)cc3F)cnn2CC1C1CC1` (centres undefined): the concentration giving a half-maximal response (EC50) in the series on Hepatitis B virus was 23 nM. Moreover, the CC50 in series [1] worked out at 32000 nM.
For `O=C1CC(Oc2ncc(F)cn2)CN1c1cnn2c1CN(C(=O)Nc1cc(F)c(F)c(F)c1)C(C1CC1)C2` (centres undefined), the EC50 in the series with Hepatitis B virus is 9 nM. Moreover, the CC50 in series [1] was 96200 nM.
Turning to `CC1CN(C(=O)Nc2cc(F)c(F)c(F)c2)Cc2c(N3CC(C#N)CC3=O)cnn21` (centres undefined), in the series on Hepatitis B virus, the EC50 is 62 nM. The CC50 in series [1] stood at 115000 nM.
On the same counts, the results for `O=C1CC(c2cnco2)CN1c1cnn2c1CN(C(=O)Nc1cc(F)c(F)c(F)c1)C(C1CC1)C2` (centres undefined) are 16 nM and 139000 nM.
Take `O=C1OC(c2ccc(F)cc2)CN1c1cnn2c1CN(C(=O)Nc1cc(F)c(F)c(F)c1)C(C1CC1)C2` (centres undefined): the EC50 in the series on Hepatitis B virus came out at 11 nM. The half-maximal cytotoxic concentration (CC50) in series [1] is 3560 nM.
In turn, `N#CC1CC(=O)N(c2cnn3c2CN(C(=O)Nc2cc(F)c(F)c(F)c2)C(C2CC2)C3)C1` (centres undefined) yielded an EC50 with Hepatitis B virus of 12 nM. Further, the Tmax in series [2] was determined as 15 min. The same compound returned a Cmax in series [3] of 6400 ng/mL. The same compound showed a half-life in series [4] of 278 min. In series [5], this compound gave an AUC(0-inf) of 10600 ng·h/mL. Further, in series [1], the CC50 was more than 200000 nM.
On to `O=C1CC(C(F)(F)F)CN1c1cnn2c1CN(C(=O)Nc1cc(F)c(F)c(F)c1)C(C1CC1)C2` (centres undefined), for which the EC50 in the series on Hepatitis B virus was found to be 34 nM. In addition, in series [1], the CC50 turned out to be 115000 nM.
As to `O=C1CC(c2ccccc2)CN1c1cnn2c1CN(C(=O)Nc1cc(F)c(F)c(F)c1)C(C1CC1)C2` (centres undefined), the concentration for a half-maximal effect (EC50) in the series with Hepatitis B virus is 6 nM. For the same compound, the CC50 in series [1] worked out at 12800 nM.
`CC1(C)CC(=O)N(c2cnn3c2CN(C(=O)Nc2cc(F)c(F)c(F)c2)C(C2CC2)C3)C1` (centres undefined) yielded an EC50 with Hepatitis B virus of 20 nM. Besides, the cytotoxic concentration (CC50) in series [1] came out at 115000 nM.
Consider `O=C1CC(Oc2ncccn2)CN1c1cnn2c1CN(C(=O)Nc1cc(F)c(F)c(F)c1)C(C1CC1)C2` (centres undefined), for which the midpoint of the response with Hepatitis B virus, the EC50, lay at 16 nM. In series [2], the time to peak (Tmax) stood at 15 min. For the same compound, the highest level in series [3] (Cmax) was 5270 ng/mL. The compound further had a half-life in series [4] of 57 min. Moreover, the AUC(0-inf) in series [5] came to 4020 ng·h/mL. Further, in series [1], the CC50 was more than 200000 nM.
For the compound `O=C1CC(c2ccccc2)CN1c1cnn2c1CN(C(=O)Nc1cc(F)c(F)c(F)c1)C(Cc1ccccc1)C2` (centres undefined), the EC50 in the series with Hepatitis B virus is more than 2000 nM. Moreover, in series [1], the cytotoxic concentration (CC50) is more than 2000 nM.
Take `Cc1cnc(C2CC(=O)N(c3cnn4c3CN(C(=O)Nc3cc(F)c(F)c(F)c3)C(C3CC3)C4)C2)s1` (centres undefined): the response in the series with Hepatitis B virus was half-maximal at 18 nM (EC50). The CC50 in series [1] stood at 96200 nM.
For `C[C@H]1Cn2ncc(N3CC(c4ccccc4)CC3=O)c2CN1CC(=O)Nc1cc(F)c(F)c(F)c1` (some centres undefined), the EC50 in the series with Hepatitis B virus was more than 2000 nM. Moreover, the CC50 in series [1] was more than 2000 nM.
Turning to `O=C(Nc1cc(F)c(F)c(F)c1)N1Cc2c(-c3ccc(F)cc3)cnn2CC1C1CC1` (centres undefined), in the series on Hepatitis B virus, a half-maximal response (EC50) required 4 nM. Further, the half-maximal cytotoxic concentration (CC50) in series [1] is 38500 nM.
